These results are taken from US5473057A, “Eleutherobin and analogs thereof” (The Regents of the University of California, priority 1994, dated 1995).

Data set [1] relates to HCT116/VM46 human colon carcinoma subline, which overexpresses P-glycoprotein. Nature of the data set: In vitro cytotoxicity in multidrug resistant subline HCT116/VM46 (XTT assay). The data set is classed as cell-based. The following applies: for fold resistance relative to corresponding parent cell line: HCT116/VM46 relative to HCT116, 4320 min; for pIC50: Homo sapiens, HCT-116/VM46, HCT116/VM46, 72 hour exposure, XTT assay. The method, then: (§1) Eleutherobin and the above described analogs are useful as cytotoxic agents. The compounds are used in the same manner as other known cytotoxic agents. They may be used alone or in combination with suitable pharmaceutical carriers and other bioactive materials. They are used both in vitro and in vivo to kill a wide variety of cell types. […] For example, in vitro toxicity of eleutherobin was tested in the HCT116 human colon carcinoma cell line and a multidrug resistant subline, HCT116/VM46, which overexpresses P-glycoprotein and is over 100-fold resistant to taxol. […] The cytotoxicity of eleutherobin was also tested in a human ovarian carcinoma cell line A2780. Eleutherobin was also found to be cytotoxic with respect to the A2780 cell line.
(§2) ^1 Cytotoxicity was determined after 72 hour exposure by XTT assay.
^2 Value in parenthesis is fold resistance relative to corresponding

In data set [2] the test system is HCT116 human colon carcinoma cell line. Nature of the data set: In vitro cytotoxicity in HCT116 (XTT assay). The format is cell-based. The following applies: for pIC50: Homo sapiens. How it is done:
as §1, §2

In data set [3] the test system is human ovarian carcinoma cell line A2780. The data set can be described thus: In vitro cytotoxicity in A2780 (XTT assay). The data set is classed as cell-based. The following applies: for pIC50: Homo sapiens. How it is done:
as §1, §2
On the technique in general: Tetrazolium dyes change colour on reduction, which living cells bring about.

The conditions of data set [4]: in words, background art; cited from earlier work.
A further data set deals with cancer cells. The data set can be described thus: Cytotoxicity, general statement. The format is cell-based. The note with it: in words.

As usually defined, the pIC50 is the negative decadic logarithm of the IC50, by convention in mol/L.

Structures are written as SMILES. pIC50: −log10 of the molar value. “Also recorded” adds a separate entry of the source. Read-outs that look alike come from different tables or passages of the source.

As for `CC(=O)O[C@H]1C(=O)[C@@]2(C)[C@H]([C@H](OC(=O)c3ccccc3)[C@]3(O)C[C@H](OC(=O)[C@H](O)[C@@H](NC(=O)c4ccccc4)c4ccccc4)C(C)=C1C3(C)C)[C@]1(OC(C)=O)CO[C@@H]1C[C@@H]2O` [paclitaxel (taxol), paclitaxel], the “fold resistance relative to corresponding parent cell line” value is listed as 117 fold in data set [1] and “over 100 fold” in data set [1] (listed as taxol). The pIC50 in data set [1] was 8.27; in data set [2] (HCT-116, HCT116, 72 hour exposure, XTT assay, read-out: IC50) it was 8.34; in data set [3] (A2780, 72 hour exposure, XTT assay, read-out: IC50), 8.17.

On to `CC1=CC(=O)[C@H](C(C)C)[C@H]2/C=C(/C)[C@@]3(O)C=C[C@](C)(O3)[C@@H](OC(=O)Cc3ccccc3)C[C@@H]12` [Valdivone B], for which the anti-inflammatory activity entry in data set [4] is given as “anti-inflammatory activity”.

Regarding `CC(C)=CC(=O)O[C@H]1C[C@H]2C(C)=CC(=O)[C@H](C(C)C)[C@H]2/C=C(/C)[C@@]2(O)C=C[C@]1(C)O2` [Valdivone A], the anti-inflammatory activity entry in data set [4] is given as “anti-inflammatory activity”.

Turning to `CO[C@]12C=C[C@](C)(O1)[C@@H](OC(=O)/C=C/c1cn(C)cn1)C[C@H]1C(C)=CC[C@H](C(C)C)[C@H]1/C=C\2COC1OCC(O)C(O)C1OC(C)=O` (some centres unmarked) [Eleutherobin], the cytotoxicity result with cancer cells is “effective cytotoxin; also recorded: cytotoxic with respect to cancer cells”. For the same compound, the “fold resistance relative to corresponding parent cell line” value in data set [1] stood at 52 fold. Moreover, the pIC50 in data set [1] was 6.26; in data set [2] (HCT-116, 72 h) it was 7.97; in data set [3] (A2780, 72 h) it was 7.86. Also, in data set [2] (in words, HCT116), the “cytotoxicity in the HCT116 cell line compared with taxol” value is “nearly as cytotoxic as taxol”. Further, the “cytotoxicity with respect to the A2780 cell line” value in data set [3] (in words, A2780) was “cytotoxic”.
